According to patent publication US20060216295A1, “Methods of identifying therapeutic targets for the treatment of vulvovaginal atrophy” (Wyeth, priority 2005, published 2006):
Read-outs that look alike come from different tables or passages of the source.

Tests used:
vaginal epithelium [1] = type: in vivo, rat; conditions: for whether the compound mimics the action of 17β-estradiol in the vagina: ovariectomized rats treated intravaginally, Example 3; for effect on the rat vaginal epithelium, in words: ovariectomized rats; for histological change of the vaginal epithelial layer compared to vehicle: rats, intravaginal dosing, Example 2
Procedure: FIG. 4 represents H&E stained cross-sections of rat vagina after 5 days of intravaginal treatment with 100 nM betacellulin in 2% carbomer vehicle.
These histologic changes are the hallmark of a vaginal estrogenic response. Tables 2 and 3 detail the studies performed with mersalyl and betacellulin. The body of the table indicates the number of positive histological changes over the number of samples evaluated.
Table 4 includes the studies performed with the PHD/FIH non-specific inhibitor DMOG, whereas Table 5 is the studies performed with 2,4-DPD.
Table 6 includes the studies performed with the FIH specific inhibitor 3,4-dihydroxybenzoate (3,4-DHB), whereas Table 7 outlines the studies performed with N-oxalyl-D-alanine (NODA).

vaginal epithelium [2] = type: in vivo, rat; conditions: intravaginal; 50 nM 17β-estradiol, 10 nM recombinant mouse betacellulin, 1 μM Mersalyl; 2% carbomer vehicle
HIF1α transcription = conditions: cited from earlier work
[3] = test system: HIF-regulated transcripts; conditions: in vitro; cited from earlier work
Betacellulin = assay: RNA expression analysis (Affymetrix RAE230A/B arrays) of vaginal vault of ovariectomized rats after 17β-estradiol; type: in vivo, rat; conditions: Betacellulin mRNA, single dose 20 μg/kg 17β-estradiol subcutaneously
Excerpt: RNA was harvested from the entire vaginal vault at each time point and was subjected to RNA expression analysis. Five micrograms of total RNA were used to generate biotin labeled cRNA using an oligo T7 primer in a reverse transcription reaction followed by in vitro transcription reaction with biotin labeled UTP and CTP. Ten micrograms of cRNA were fragmented and hybridized to RAE230A and RAE230B arrays (Affymetrix, Santa Clara, Calif.). Hybridized arrays were stained according to manufacturer's protocols on a Fluidics Station 450 and scanned on an Affymetrix scanner 3000. All array images were visually inspected for defects and quality. Signal values were determined using Gene Chip Operating System 1.0 (GCOS, Affymetrix). For each array, all probe sets were normalized to a mean signal intensity value of 100. The default GCOS statistical values were used for all analyses. Signal values and absolute detection calls were imported into Genesis 2.0 (GeneLogic, Gaithersburg, Md.) for analysis.
A gene was considered to be detectible if the mean expression in either the treated or untreated group was 50 signal units and the percentage of samples with a Present (P) call as determined by GCOS default settings was greater than or equal to 25%. A gene was considered to be regulated if the difference between the treated and untreated groups met the following criteria: (1) the gene had to be detected in at least 25% of the samples of at least one of the groups, (2) the fold change between was at least 1.7, and (3) the p-value based on a T-test had to be ≦0.01. Nine hundred fifty-nine qualifiers on the RAE230A array and 707 qualifiers on the RAE230B array met these conditions.
Based on the time course of response and the biological function associated with them, HIF1α and betacellulin were selected as candidate targets for treatment of vulvovaginal atrophy. These proteins were selected for further study because they were regulated by estradiol after 6 hours of treatment and thus can be expected to be at the top of the estrogenic signaling cascade.

COC(=O)CNC(=O)C(=O)OC [DMOG, N-(methoxyooxoacetyl)-glycine methyl ester]
number of positive histological responses/number of samples evaluated (vaginal epithelium [1]; OVX rat, DMOG 1 μM intravaginal, Study 2): 0/4 | number of positive histological responses/number of samples evaluated (vaginal epithelium [1]; OVX rat, DMOG 10 μM intravaginal, Study 1): 3/3 | number of positive histological responses/number of samples evaluated (vaginal epithelium [1]; OVX rat, DMOG 10 μM intravaginal, Study 2): 2/3 | number of positive histological responses/number of samples evaluated (vaginal epithelium [1]; OVX rat, DMOG 10 μM intravaginal, Study 3): 2/4 | number of positive histological responses/number of samples evaluated (vaginal epithelium [1]; OVX rat, DMOG 100 μM intravaginal, Study 1): 0/3 | number of positive histological responses/number of samples evaluated (vaginal epithelium [1]; OVX rat, DMOG 1 mM intravaginal, Study 1): 0/3 | number of positive histological responses/number of samples evaluated (vaginal epithelium [1]; OVX rat, DMOG 1 mM intravaginal, Study 3): 1/4 | whether the compound mimics the action of 17β-estradiol in the vagina (vaginal epithelium [1]): variable results

COC(CNC(=O)c1ccccc1OCC(=O)O)[CH2][Hg][OH] (centres unmarked) [Mersalyl, mersalyl]
number of positive histological changes over the number of samples evaluated (vaginal epithelium [1]; Mersalyl dose 0.1 μM intravaginal, Study 2): 2/4 | number of positive histological changes over the number of samples evaluated (vaginal epithelium [1]; Mersalyl dose 0.1 μM intravaginal, Study 3): 4/4 | number of positive histological changes over the number of samples evaluated (vaginal epithelium [1]; Mersalyl dose 0.1 μM intravaginal, Study 4): 4/4 | number of positive histological changes over the number of samples evaluated (vaginal epithelium [1]; Mersalyl dose 1 μM intravaginal, Study 1): 3/3 | number of positive histological changes over the number of samples evaluated (vaginal epithelium [1]; Mersalyl dose 1 μM intravaginal, Study 2): 4/4/ | number of positive histological changes over the number of samples evaluated (vaginal epithelium [1]; Mersalyl dose 1 μM intravaginal, Study 3): 2/3 | number of positive histological changes over the number of samples evaluated (vaginal epithelium [1]; Mersalyl dose 1 μM intravaginal, Study 4): 4/4/ | number of positive histological changes over the number of samples evaluated (vaginal epithelium [1]; Mersalyl dose 10 μM intravaginal, Study 1): 0/3 | number of positive histological changes over the number of samples evaluated (vaginal epithelium [1]; Mersalyl dose 10 μM intravaginal, Study 2): 0/4 | number of positive histological changes over the number of samples evaluated (vaginal epithelium [1]; Mersalyl dose 100 μM intravaginal, Study 1): 0/3 | effect on the rat vaginal epithelium, in words (vaginal epithelium [1]): expansion of the vaginal epithelium in a manner similar to treatment with 17β-estradiol | histological change of the vaginal epithelial layer compared to vehicle (vaginal epithelium [1]): clear thickening and differentiation of the vaginal epithelial layer | histology of rat vagina (H&E stained cross-sections) compared to vehicle, FIG. 1 (vaginal epithelium [2]): positive effect | upregulation of HIF1α transcription (HIF1α transcription): upregulate HIF1α transcription

CODDD: peptide corresponding to amino acids 549-582 of HIF1α (C-terminal oxygen dependent degradation domain), FIG. 3
upregulation of HIF-regulated transcripts [3]: capable of upregulating HIF-regulated transcripts in vitro

CCOC(=O)c1ccnc(C(=O)OCC)c1 [2,4-DPD, 2,4-pyridinedicarboxylic acid, diethyl ester]
number of positive histological responses/number of samples evaluated (vaginal epithelium [1]; OVX rat, 2,4-DPD 0.1 μM intravaginal, Study 2): 0/4 | number of positive histological responses/number of samples evaluated (vaginal epithelium [1]; OVX rat, 2,4-DPD 1 μM intravaginal, Study 2): 1/4 | number of positive histological responses/number of samples evaluated (vaginal epithelium [1]; OVX rat, 2,4-DPD 10 μM intravaginal, Study 1): 0/4 | number of positive histological responses/number of samples evaluated (vaginal epithelium [1]; OVX rat, 2,4-DPD 10 μM intravaginal, Study 2): 1/3 | number of positive histological responses/number of samples evaluated (vaginal epithelium [1]; OVX rat, 2,4-DPD 10 μM intravaginal, Study 3): 1/4 | whether the compound mimics the action of 17β-estradiol in the vagina (vaginal epithelium [1]): variable results

C[C@@H](NC(=O)C(=O)O)C(=O)O [NODA, N-oxalyl-D-alanine]
number of positive histological responses/number of samples evaluated (vaginal epithelium [1]; OVX rat, NODA 10 μM intravaginal, Study 1): 1/4 | number of positive histological responses/number of samples evaluated (vaginal epithelium [1]; OVX rat, NODA 10 μM intravaginal, Study 2): 1/3 | number of positive histological responses/number of samples evaluated (vaginal epithelium [1]; OVX rat, NODA 10 μM intravaginal, Study 3): 0/3 | number of positive histological responses/number of samples evaluated (vaginal epithelium [1]; OVX rat, NODA 100 μM intravaginal, Study 1): 0/4 | number of positive histological responses/number of samples evaluated (vaginal epithelium [1]; OVX rat, NODA 100 μM intravaginal, Study 2): 0/3 | number of positive histological responses/number of samples evaluated (vaginal epithelium [1]; OVX rat, NODA 100 μM intravaginal, Study 3): 0/3 | number of positive histological responses/number of samples evaluated (vaginal epithelium [1]; OVX rat, NODA 1 mM intravaginal, Study 1): 0/4 | number of positive histological responses/number of samples evaluated (vaginal epithelium [1]; OVX rat, NODA 1 mM intravaginal, Study 2): 0/3 | number of positive histological responses/number of samples evaluated (vaginal epithelium [1]; OVX rat, NODA 1 mM intravaginal, Study 3): 1/3 | number of positive histological responses/number of samples evaluated (vaginal epithelium [1]; OVX rat, NODA 1 mM intravaginal, Study 4): 1/4 | number of positive histological responses/number of samples evaluated (vaginal epithelium [1]; OVX rat, NODA 10 mM intravaginal, Study 1): 3/4 | number of positive histological responses/number of samples evaluated (vaginal epithelium [1]; OVX rat, NODA 10 mM intravaginal, Study 2): 0/3 | number of positive histological responses/number of samples evaluated (vaginal epithelium [1]; OVX rat, NODA 10 mM intravaginal, Study 3): 1/3 | number of positive histological responses/number of samples evaluated (vaginal epithelium [1]; OVX rat, NODA 10 mM intravaginal, Study 4): 0/4 | whether the compound mimics the action of 17β-estradiol in the vagina (vaginal epithelium [1]): variable results

C[C@]12CC[C@@H]3c4ccc(O)cc4CC[C@H]3[C@@H]1CC[C@@H]2O [17β-estradiol]
Fold Change Over Vehicle (Betacellulin; 6 hour): +2.9 | Fold Change Over Vehicle (Betacellulin; 72 hour): +2.8 | Fold Change Over Vehicle (Betacellulin; 120 hour (5 day)): +1.6 | histology of rat vagina (H&E stained cross-sections) compared to vehicle, FIG. 1 (vaginal epithelium [2]): positive effect

O=C(O)c1ccc(O)c(O)c1 [3,4-DHB, 3,4-dihydroxybenzoate]
number of positive histological responses/number of samples evaluated (vaginal epithelium [1]; OVX rat, 3,4-DHB 10 μM intravaginal, Study 1): 1/4 | number of positive histological responses/number of samples evaluated (vaginal epithelium [1]; OVX rat, 3,4-DHB 100 μM intravaginal, Study 1): 0/4 | number of positive histological responses/number of samples evaluated (vaginal epithelium [1]; OVX rat, 3,4-DHB 1 mM intravaginal, Study 1): 0/4 | number of positive histological responses/number of samples evaluated (vaginal epithelium [1]; OVX rat, 3,4-DHB 1 mM intravaginal, Study 2): 0/4 | number of positive histological responses/number of samples evaluated (vaginal epithelium [1]; OVX rat, 3,4-DHB 1 mM intravaginal, Study 3): 0/3 | number of positive histological responses/number of samples evaluated (vaginal epithelium [1]; OVX rat, 3,4-DHB 10 mM intravaginal, Study 1): 4/4 | number of positive histological responses/number of samples evaluated (vaginal epithelium [1]; OVX rat, 3,4-DHB 10 mM intravaginal, Study 2): 1/4 | number of positive histological responses/number of samples evaluated (vaginal epithelium [1]; OVX rat, 3,4-DHB 10 mM intravaginal, Study 3): 2/3 | number of positive histological responses/number of samples evaluated (vaginal epithelium [1]; OVX rat, 3,4-DHB 10 mM intravaginal, Study 4): 1/3 | whether the compound mimics the action of 17β-estradiol in the vagina (vaginal epithelium [1]): variable results

B1: NODDD: peptide corresponding to amino acids 343417 of HIF1α (N-terminal oxygen dependent degradation domain), FIG. 3 (peptide)
chain: SGIIQHDLIFSLQQTECVLKPVESSDMKMTQLFTKVESEDTSSLFDKLKKEPDALTLLAPAAGDTIISLDFGSND
modifications: NODDD sequence from Hif1a (amino acids 343-417)
upregulation of HIF-regulated transcripts [3]: capable of upregulating HIF-regulated transcripts in vitro

B2: Betacellulin: mouse betacellulin (Asp32-Gln118) generated in E. coli by R&D Systems (catalog # 1025-CE); member of the EGF family (protein)
chain: DGNTTRTPETNGSLCGAPGENCTGTTPRQKVKTHFSRCPKQYKHYCIHGRCRFVVDEQTPSCICEKGYFGARCERVDLFYLQQDRGQ
modifications: Mouse betacellulin peptide (asp32-gln118)
notes: mouse betacellulin (Asp32-Gln118) generated in E. coli by R&D Systems (catalog # 1025-CE); member of the EGF family
number of positive histological changes over the number of samples evaluated (vaginal epithelium [1]; Betacellulin dose 10 nM intravaginal, Study 1): 3/3 | number of positive histological changes over the number of samples evaluated (vaginal epithelium [1]; Betacellulin dose 10 nM intravaginal, Study 2): 0/4 | number of positive histological changes over the number of samples evaluated (vaginal epithelium [1]; Betacellulin dose 10 nM intravaginal, Study 3): 3/3 | number of positive histological changes over the number of samples evaluated (vaginal epithelium [1]; Betacellulin dose 100 nM intravaginal, Study 2): 3/4 | number of positive histological changes over the number of samples evaluated (vaginal epithelium [1]; Betacellulin dose 100 nM intravaginal, Study 3): 2/3 | number of positive histological changes over the number of samples evaluated (vaginal epithelium [1]; Betacellulin dose 1 μM intravaginal, Study 2): 2/4 | effect on the rat vaginal epithelium, in words (vaginal epithelium [1]): mimics the effects of estrogen on the rat vaginal epithelium | histological change of the vaginal epithelial layer compared to vehicle (vaginal epithelium [1]): clear thickening and differentiation of the vaginal epithelial layer | histology of rat vagina (H&E stained cross-sections) compared to vehicle, FIG. 1 (vaginal epithelium [2]): positive effect
